Measured values from article PMC8000760, “Potential Effect of Pseudevernia furfuracea (L.) Zopf Extract and Metabolite Physodic Acid on Tumour Microenvironment Modulation in MCF-10A Cells” (Biomolecules, 2021).

Experiments:
MCF-10A [1] = test: MTS cell viability assay; assay type: cell-based, human; details: 72 h
Method: (§1) Briefly, MCF-10A and BJ-5ta were seeded in 96-well culture plates, and after 24 h incubation, treated with various ranges of concentrations of tested compounds (10–100 μg/mL) for 72 h. At the same time, HUVECs were seeded in a gelatine-coated 96-well plate and treated with the same aliquots of indicated compounds in the presence or absence of VEGF (Vascular endothelial growth factor) (25 ng/mL) for 48 h. Cell viability was evaluated by measuring the absorbance at 490 nm using the automated CytationTM 3 Cell Imaging Multi-Mode Reader (Biotek, Winooski, VT, USA). Three independent experiments were performed at different intervals.

HUVECs [2] = test: MTS cell viability assay; assay type: cell-based, human; details: 48 h
Method: as §1

Smad2/3 in BJ-5ta = test: Western blot of total Smad2/3 in TGF-β-stimulated fibroblasts; assay type: cell-based; details: TGF-β-stimulated BJ-5ta
Method: (§2) The MCF-10A and BJ-5ta cells were seeded and cultivated for 24 h in a complete medium. One day after seeding, 30 ng/mL of TGF-β was added and cultivated for 7 days (d). TGF-β was added to induce epithelial–mesenchymal transition in tested cell lines. Lichen extract P. furfuracea (L.) Zopf and its metabolite physodic acid were added at time 0 h and then incubated for 24, 48 and 72 h for various analyses, as described in Figure 1.
(§3) Proteins isolated from MCF-10A and BJ-5ta cell lysates were determined by the Pierce® BCA Protein Assay Kit (Thermo Scientific, Rockford, IL, United States), using bovine serum albumin (BSA) as the standard, and measured by an automated Cytation™ 3 Cell Imaging Multi-Mode Reader (Biotek) at a wavelength of 570 nm. Proteins were separated on SDS-PAA gel (12%) at 100 V for 2 h and then transferred to a polyvinylidene difluoride (PVDF) membrane using the iBlot dry blotting system (Thermo Scientific, Rockford, IL, United States). […] After incubation, the membrane was again washed in TBS-Tween (3 × 5 min), and the expression of the protein was detected using a chemiluminescent ECL substrate (Thermo Fisher Scientific) and MF-ChemiBIS 2.0 Imaging System (DNR BIO-Imaging Systems, Jerusalem, Israel). The detected band was then analysed densitometrically using the Image Studio Lite software (LI-COR Biosciences, Lincoln, NE, USA). […]

[3] = test system: E-cadherin in TGF-β-stimulated MCF-10A cells; test: E-cadherin expression (Western blot, flow cytometry, immunofluorescence); assay type: cell-based, human; details: TGF-β-stimulated groups
Method: as §2
The MCF-10A cells (1 × 10^4/well) were seeded in Petri dishes and stimulated with […] TGF-β for 7 days. […] After detaching, using Trypsin/EDTA, cells were harvested and pelleted by centrifugation at 1200 rpm for 5 min. […] All samples were analysed using a FACS Calibur flow cytometer (Becton Dickinson, San Jose, CA, USA). […]
Proteins isolated from MCF-10A and BJ-5ta cell lysates were determined by the Pierce® BCA Protein Assay Kit (Thermo Scientific, Rockford, IL, United States), using bovine serum albumin (BSA) as the standard, and measured by an automated Cytation™ 3 Cell Imaging Multi-Mode Reader (Biotek) at a wavelength of 570 nm. […] After incubation, the membrane was again washed in TBS-Tween (3 × 5 min), and the expression of the protein was detected using a chemiluminescent ECL substrate (Thermo Fisher Scientific) and MF-ChemiBIS 2.0 Imaging System (DNR BIO-Imaging Systems, Jerusalem, Israel). […]

E-cadherin in BJ-5ta = test: Western blot of E-cadherin in TGF-β-stimulated fibroblasts; assay type: cell-based; details: TGF-β-stimulated BJ-5ta, 48 and 72 h
Method: as §2, §3

[4] = test system: MCF-10A, BJ-5ta and HUVEC cells; test: MTS cell viability assay, range over the three cell lines; assay type: cell-based; details: cell viability and cell proliferation tests
Method: as §1

MCF-10A [5] = test: BrdU cell proliferation assay; assay type: cell-based, human; details: 72 h
Method: (§4) The MCF-10A (5 × 10^3/well), BJ-5ta (5 × 10^3/well) and HUVEC cells (4 × 10^3/well) were plated in a 96-well plate in 80 μL suitable medium. HUVECs were seeded onto a gelatine-coated plate. After 24 h, cells were treated with the range of concentration 10–100 μg/mL for 72 h (MCF-10A, BJ-5ta), or in the presence or absence of 25 ng/mL of VEGF for 48 h (HUVECs). After 48 h (MCF-10A, BJ-5ta) or 24 h (HUVECs), BrdU labelling solution was added into cells and incubated for another 24 h at 37 °C, followed by fixation and incubation with anti-BrdU peroxidase conjugate solution for an additional 1.5 h at room temperature (RT). Then, cells were washed with washing buffer PBS and incubated with substrate solution TMB for 5 to 30 min according to colour intensity. Finally, we added stop solution (1 M H2SO4) and incorporated BrdU was detected with an automated CytationTM 3 Cell Imaging Multi-Mode Reader at 450 nm (reference wavelength: 690 nm). Three independent experiments were performed at different intervals.

HUVECs [6] = test: BrdU cell proliferation assay; assay type: cell-based, human; details: 48 h
Method: as §4

BJ-5ta = test: BrdU cell proliferation assay; assay type: cell-based; details: 72 h
Method: as §4

Compound: CCCCCC(=O)Cc1cc(O)cc2c1C(=O)Oc1cc(O)c(C(=O)O)c(CCCCC)c1O2 [Phy, physodic acid]
- IC10 (MCF-10A [1]): 59.25 ± 1.36 µM
- IC50 (MCF-10A [1]; Homo sapiens): 79.9 ± 0.93 µM
- VEGF-induced cell growth (HUVECs [2]; HUVECs with VEGF 25 ng/mL): significantly inhibited
- cell growth of non-stimulated HUVECs (HUVECs [2]; HUVECs without VEGF): no significant differences
- IC10 (HUVECs [2]; HUVECs): 60.62 ± 3.30 µM
- IC50 (HUVECs [2]; Homo sapiens, HUVEC, HUVECs): 92.8 ± 3.62 µM
- total Smad2/3 levels (Smad2/3 in BJ-5ta): altered minimally
- restoration of E-cadherin [3]: did not observe a significant restoration
- expression of epithelial marker E-cadherin (E-cadherin in BJ-5ta): did not significantly change
- degree of cytotoxicity on all tested cells [4]: did not show a high degree of cytotoxicity
- IC10 (MCF-10A [5]): 63.63 ± 3.40 µM
- IC50 (MCF-10A [5]; Homo sapiens): 155 ± 7.4 µM
- IC10 (HUVECs [6]): 89.53 ± 3.21 µM
- IC50 (HUVECs [6]; Homo sapiens, HUVEC): 124 ± 5.33 µM
- IC10 (BJ-5ta): 62.88 ± 0.90 µM
- IC50 (BJ-5ta): 164 ± 4.5 µM
